Where two headings read alike, the source gives them in different places.
How the values were obtained:
Test in all cases: Sensitivity test (agar dilution)
E. faecalis ATCC19433 = type: cell-based, Enterococcus faecalis
Method in brief: (§1)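 Standard Japanese agar dilution method. Drugs alone or combined were serially halved in Mueller Hinton agar, inoculated with overnight (37° C) cultures at about 10^6 CFU/ml. Values are MICs.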

B. subtilis ATCC6633 = type: cell-based, Bacillus subtilis; conditions: Bacillus subtilis
Method in brief: as §1

P. mirabiris GN2425 = type: cell-based, Proteus mirabilis; conditions: Proteus mirabilis
Method in brief: as §1

P. vulgaris GN7919 = type: cell-based, Proteus vulgaris; conditions: Proteus vulgaris, P. vulgaris GN7919, read-out: MIC concomitant
Method in brief: as §1

C[C@H]1C=C(c2csc(SC3=C(C(=O)O)N4C(=O)[C@H]([C@@H](C)O)[C@H]4[C@H]3C)n2)CN1 [SM, (4R,5S,6S)-6-[(1R)-1-Hydroxyethyl]-4-methyl-3-({4-[(5S)-5-methyl-2,5-dihydro-1H-pyrrol-3-yl]-1,3-thiazol-2-yl}sulfanyl)-7-oxo-1-azabicyclo[3.2.0]hept-2-ene-2-carboxylic acid]
MIC (E. faecalis ATCC19433; Enterococcus faecalis, ATCC19433, Concomitant (CAZ:SM = 1:1), E. faecalis ATCC19433, read-out: MIC concomitant): 1 µg/mL | MIC (E. faecalis ATCC19433; Enterococcus faecalis, ATCC19433, Concomitant (CPFX:SM = 1:1), E. faecalis ATCC19433, read-out: MIC concomitant): 0.5 µg/mL | MIC (E. faecalis ATCC19433; Enterococcus faecalis, ATCC19433, Concomitant (DRPM:SM = 1:1), E. faecalis ATCC19433, read-out: MIC concomitant): 1 µg/mL | MIC (E. faecalis ATCC19433; Enterococcus faecalis, ATCC19433, Concomitant (IPM:SM = 1:1), read-out: MIC): 0.5 µg/mL | MIC (E. faecalis ATCC19433; Enterococcus faecalis, ATCC19433, Concomitant (MEPM:SM = 1:1), read-out: MIC): 1 µg/mL | MIC (E. faecalis ATCC19433; Enterococcus faecalis, ATCC19433, Concomitant (MEPM:SM = 1:2), read-out: MIC): 1 µg/mL | MIC (E. faecalis ATCC19433; Enterococcus faecalis, ATCC19433, Concomitant (MEPM:SM = 1:4), read-out: MIC): 1 µg/mL | MIC (E. faecalis ATCC19433; Enterococcus faecalis, ATCC19433, Concomitant (PAPM:SM = 1:1), E. faecalis ATCC19433, read-out: MIC concomitant): 1 µg/mL | MIC (E. faecalis ATCC19433; Enterococcus faecalis, ATCC19433, Concomitant (PIPC:SM = 1:1), E. faecalis ATCC19433, read-out: MIC concomitant): 0.5 µg/mL | MIC (E. faecalis ATCC19433; Enterococcus faecalis, ATCC19433, Concomitant drug (MEPM:SM = 2:1), read-out: MIC): 0.5 µg/mL | MIC (E. faecalis ATCC19433; Enterococcus faecalis, ATCC19433, alone, read-out: MIC): 1 µg/mL | MIC (E. faecalis ATCC19433; Enterococcus faecalis, ATCC19433, drug alone, E. faecalis ATCC19433, read-out: MIC alone): 2 µg/mL | MIC (E. faecalis ATCC19433; alone): 2 µg/mL | MIC alone (E. faecalis ATCC19433; drug alone, E. faecalis ATCC19433): 1 µg/mL | MIC (B. subtilis ATCC6633; ATCC6633, Concomitant (AZT:SM = 1:1), B. subtilis ATCC6633, read-out: MIC concomitant): ≤ 0.002 µg/mL | MIC (B. subtilis ATCC6633; ATCC6633, Concomitant (BIPM:SM = 1:1), B. subtilis ATCC6633, read-out: MIC concomitant): ≤ 0.002 µg/mL | MIC (B. subtilis ATCC6633; ATCC6633, Concomitant (CAZ:SM = 1:1), B. subtilis ATCC6633, read-out: MIC concomitant): ≤ 0.002 µg/mL | MIC (B. subtilis ATCC6633; ATCC6633, Concomitant (CPFX:SM = 1:1), B. subtilis ATCC6633, read-out: MIC concomitant): 0.004 µg/mL | MIC (B. subtilis ATCC6633; ATCC6633, Concomitant (DRPM:SM = 1:1), B. subtilis ATCC6633, read-out: MIC concomitant): ≤ 0.002 µg/mL | MIC (B. subtilis ATCC6633; ATCC6633, Concomitant (IPM:SM = 1:1), read-out: MIC): ≤ 0.002 µg/mL | MIC (B. subtilis ATCC6633; ATCC6633, Concomitant (MEPM:SM = 1:1), read-out: MIC): ≤ 0.016 µg/mL | MIC (B. subtilis ATCC6633; ATCC6633, Concomitant (MEPM:SM = 1:2), read-out: MIC): ≤ 0.031 µg/mL | MIC (B. subtilis ATCC6633; ATCC6633, Concomitant (MEPM:SM = 1:4), read-out: MIC): ≤ 0.063 µg/mL | MIC (B. subtilis ATCC6633; ATCC6633, Concomitant (PAPM:SM = 1:1), B. subtilis ATCC6633, read-out: MIC concomitant): ≤ 0.002 µg/mL | MIC (B. subtilis ATCC6633; ATCC6633, Concomitant (PIPC:SM = 1:1), B. subtilis ATCC6633, read-out: MIC concomitant): ≤ 0.002 µg/mL | MIC (B. subtilis ATCC6633; ATCC6633, Concomitant drug (MEPM:SM = 2:1), read-out: MIC): ≤ 0.008 µg/mL | MIC (B. subtilis ATCC6633; ATCC6633, alone, read-out: MIC): ≤ 0.008 µg/mL | MIC (B. subtilis ATCC6633; ATCC6633, drug alone, B. subtilis ATCC6633, read-out: MIC alone): 0.004 µg/mL | MIC (P. mirabiris GN2425; GN2425, Concomitant (IPM:SM = 1:1)): 0.25 µg/mL | MIC (P. mirabiris GN2425; GN2425, Concomitant (MEPM:SM = 1:1)): ≤ 0.016 µg/mL | MIC (P. mirabiris GN2425; GN2425, Concomitant (MEPM:SM = 1:2)): 0.063 µg/mL | MIC (P. mirabiris GN2425; GN2425, Concomitant (MEPM:SM = 1:4)): ≤ 0.063 µg/mL | MIC (P. mirabiris GN2425; GN2425, Concomitant drug (MEPM:SM = 2:1)): 0.016 µg/mL | MIC (P. mirabiris GN2425; GN2425, alone): 0.125 µg/mL | MIC (P. mirabiris GN2425; GN2425, read-out: MIC alone, drug alone, P. mirabiris GN2425): 0.125 µg/mL | MIC (P. mirabiris GN2425; GN2425, read-out: MIC concomitant, Concomitant (AZT:SM = 1:1), P. mirabiris GN2425): 0.004 µg/mL | MIC (P. mirabiris GN2425; GN2425, read-out: MIC concomitant, Concomitant (BIPM:SM = 1:1), P. mirabiris GN2425): 0.125 µg/mL | MIC (P. mirabiris GN2425; GN2425, read-out: MIC concomitant, Concomitant (CAZ:SM = 1:1), P. mirabiris GN2425): 0.031 µg/mL | MIC (P. mirabiris GN2425; GN2425, read-out: MIC concomitant, Concomitant (CPFX:SM = 1:1), P. mirabiris GN2425): 0.031 µg/mL | MIC (P. mirabiris GN2425; GN2425, read-out: MIC concomitant, Concomitant (DRPM:SM = 1:1), P. mirabiris GN2425): 0.063 µg/mL | MIC (P. mirabiris GN2425; GN2425, read-out: MIC concomitant, Concomitant (PAPM:SM = 1:1), P. mirabiris GN2425): 0.125 µg/mL | MIC (P. mirabiris GN2425; GN2425, read-out: MIC concomitant, Concomitant (PIPC:SM = 1:1), P. mirabiris GN2425): 0.063 µg/mL | MIC (P. vulgaris GN7919; GN7919, Concomitant (AZT:SM = 1:1)): 0.25 µg/mL | MIC (P. vulgaris GN7919; GN7919, Concomitant (BIPM:SM = 1:1)): 0.25 µg/mL | MIC (P. vulgaris GN7919; GN7919, Concomitant (CAZ:SM = 1:1)): 0.5 µg/mL | MIC (P. vulgaris GN7919; GN7919, Concomitant (CPFX:SM = 1:1)): 0.016 µg/mL

From US20090018111A1, “Novel Antimicrobial Medicament” (priority 2004, published 2009)
